Read-outs that look alike come from different tables or passages of the source.
Legend:
influenza virus [1] = tested on: influenza virus; design: method as in PMID 28792469; details: 50 µg/mL; cited from earlier work
influenza virus [2] = tested on: influenza virus; design: method as in doi:10.1134/S1068162018050059; details: read-out: EC50, anti-influenza activity; cited from earlier work
[3] = Cytotoxicity test, CellTiter-Glo luminescent cell viability assay; details: dog, MDCK cells
A/PR/8/34 virus = tested on: A/PR/8/34 virus; design: method as in PMID 26157551; details: 10 μM; cited from earlier work
MDCK cells [4] = details: read-out: CC50 (cytotoxicity concentration for 50% cell death); cited from earlier work
[5] = tested on: avian influenza KBNP-0028 (H9N2) virus; details: read-out: EC50 against avian influenza KBNP-0028 (H9N2) virus; cited from earlier work
in vitro = details: dog
[6] = tested on: influenza A/WSN/33 (H1N1) virus; assay: microbe, parasite or virus in culture; assay type: cell-based; details: for IC50: read-out: IC50 (half maximal inhibitory concentration); for inhibition rate against influenza virus A/WSN/33 (H1N1): CPE-based screening at 20 μM
MDCK cells [7] = assay: Cytotoxicity test, CellTiter-Glo luminescent cell viability assay; details: for CC50: read-out: CC50 (cytotoxicity concentration for 50% cell death), MDCK cells; for MDCK cell viability: 100 µM, 36 h, CellTiter-Glo

Question: With `C=C(C)[C@@H]1CC[C@]2(C(=O)O)CC[C@]3(C)[C@H](CC[C@@H]4[C@@]5(C)CC[C@H](O)C(C)(C)[C@@H]5CC[C@]43C)[C@@H]12` [BA, Betulinic acid] as the compound, how does the “anti-influenza activity (inhibition)” value (influenza virus [1]) read?
Answer: Its value is 27.6%.

Question: And the EC50 (influenza virus [2])?
Answer: Its EC50 is greater than 219 µM.

Question: What about the viability at 36 h, 100 µM [3] of the same compound?
Answer: The viability at 36 h, 100 µM was 8.5%.

Question: What about the “anti-influenza activity against A/PR/8/34 virus” value (A/PR/8/34 virus) of the same compound?
Answer: The value was ~ 30%.

Question: What about the CC50 (MDCK cells [4]) of the same compound?
Answer: Its CC50 is 31.9 µM.

Question: For `C=C(C)[C@@H]1CC[C@]2(C=O)CC[C@]3(C)[C@H](CC[C@@H]4[C@@]5(C)CC[C@H](O)C(C)(C)[C@@H]5CC[C@]43C)[C@@H]12` [Betulinic aldehyde], which EC50 [5] is on record?
Answer: The EC50 was 28.4 µM.

Question: What does the source list for `CC(=O)N[C@H]1[C@H]([C@H](O)[C@H](O)CO)OC(C(=O)O)=C[C@@H]1N=C(N)N` [Zanamivir, reference compound]?
Answer: CC50 (in vitro): > 100 µM; SI (Selectivity Index, ratio of CC50 to IC50) [6]: >79.4; IC50 ([6]; Influenza A virus, MDCK, 36 h): 1.26 ± 0.36 µM

Question: Which results are given for “Heptakis 6-Deoxy-6-[4-N-(3β-Hydroxy-lup-20(29)-en-28-oyl)-aminomethyl-1H-1,2,3-triazol-1-yl]-β-CD [Compound 70]”?
Answer: CC50 (MDCK cells [7]): > 100 µM; IC50 [6]: 7.48 ± 1.93 µM

Question: With “Heptakis 6-Deoxy-6-[4-N-[(2-(2-(2-Propyn-1-yloxy)ethoxy)ethyl)-3β-hydroxy-lup-20(29)-en-28-Oyl]-aminomethyl-1H-1,2,3-triazol-1-Yl]-2,3-di-O-acetyl-β-CD [Compound 58]” as the compound, how does the MDCK cell viability (MDCK cells [7]) read?
Answer: The MDCK cell viability was 68%.

Question: Which MDCK cell viability (MDCK cells [7]) does the source give for “Heptakis 6-Deoxy-6-[4-N-[(3,6,9,12,15,18-Hexaoxaheneicos-20-yn-1-yl)-3β-hydroxy-lup-20(29)-en-28-oyl]-aminomethyl-1H-1,2,3-triazol-1-yl]-β-CD [Compound 82]” here?
Answer: The MDCK cell viability was 67%.

Question: Which results are given for “Hexakis 6-Deoxy-6-[4-N-(3β-Hydroxy-lup-20(29)-en-28-oyl)-aminomethyl-1H-1,2,3-triazol-1-yl]-α-CD [Compound 69]”?
Answer: CC50 (MDCK cells [7]): > 100 µM; IC50 [6]: 9.82 ± 1.74 µM

Question: Which “inhibition rate against influenza virus A/WSN/33 (H1N1)” value (“inhibition rate” below) [6] does the source give for “Hexakis 6-Deoxy-6-[4-N-[(2-(2-(2-Propyn-1-yloxy)ethoxy)ethyl)-3β-hydroxy-lup-20(29)-en-28-oyl]-aminomethyl-1H-1,2,3-triazol-1-yl]-2,3-di-O-acetyl-α-CD [Compound 57]” here?
Answer: Its value is “over 50%”.

Question: With “Hexakis 6-Deoxy-6-[4-N-[(2-(2-(2-Propyn-1-yloxy)ethoxy)ethyl)-3β-hydroxy-lup-20(29)-en-28-oyl]-aminomethyl-1H-1,2,3-triazol-1-yl]-α-CD [Compound 75]” as the compound, how does the IC50 ([6]; A/WSN/33 virus in MDCK cells, MOI 0.2, 36 h) read?
Answer: The IC50 was 15.6 ± 3.32 µM.

Question: What about the “inhibition rate” value [6] of the same compound?
Answer: The value was “over 50%”.

Question: Which “inhibition rate” value [6] does the source give for “Hexakis 6-Deoxy-6-[4-N-[(3,6,9,12-Tetraoxapentadec-14-yn-1-yl)-3β-hydroxy-lup-20(29)-en-28-oyl]-aminomethyl-1H-1,2,3-triazol-1-yl]-α-CD [Compound 78]” here?
Answer: Its value is “over 50%”.

Question: With “Octakis 6-Deoxy-6-[4-N-(3β-Hydroxy-lup-20(29)-en-28-oyl)-aminomethyl-1H-1,2,3-triazol-1-yl]-γ-CD [Compound 71]” as the compound, how does the CC50 (MDCK cells [7]) read?
Answer: The CC50 was greater than 100 µM.

Question: What about the IC50 [6] of the same compound?
Answer: The IC50 was 7.59 ± 1.57 µM.

Question: For “Octakis 6-Deoxy-6-[4-N-[(3,6,9,12-Tetraoxapentadec-14-yn-1-yl)-3β-hydroxy-lup-20(29)-en-28-oyl]-aminomethyl-1H-1,2,3-triazol-1-yl]-γ-CD [Compound 80]”, which MDCK cell viability (MDCK cells [7]) is on record?
Answer: The MDCK cell viability was 64%.
